From patent US12648943B2, “Treatment of adrenocortical carcinoma with selective glucocorticoid receptor modulators (SGRMs) and antibody checkpoint inhibitors” (Corcept Therapeutics Incorporated, priority 2020, dated 2026)
Entries after “also recorded” stand apart in the source; their conditions may differ.

Columns and labels:
human NK cells [1] = test: Activation of isolated human NK cells stimulated with IL-2 (CD25+CD69+ cells); format: cell-based; settings: NK cells from healthy donors, IL-2 stimulated; cortisol alone or cortisol plus relacorilant; Mann-Whitney p=0.0039
Procedure: (§1) Given the prominent suppression of NK related genes in GC+ cases, the direct effects of GR modulation of human NK cells were assessed. NK cells were isolated from healthy donors and stimulated with IL-2. Activation (abundance of CD25+CD69+ cells) was increased by stimulation, suppressed by cortisol, and restored by relacorilant (Mann-Whitney p=0.0039) (FIG. 11A). […] (FIG. 12D).

human NK cells [2] = test: Proliferation of isolated human NK cells stimulated with IL-2; format: cell-based; settings: NK cells from healthy donors, IL-2 stimulated; cortisol alone or cortisol plus relacorilant; Mann-Whitney p=0.0099
Procedure: as §1

human NK cells [3] = test: Cytokine secretion by isolated human NK cells stimulated with IL-2; format: cell-based; settings: for Cytokine secretion (both transcript and secreted protein): cortisol alone or cortisol plus relacorilant
Procedure: as §1

human NK cells [4] = test: Gene expression in isolated human NK cells stimulated with IL-2; format: cell-based; settings: for Expression of IL2RA (IL2 receptor) / Expression of LAG3 / Transcription of IFNG (IFNγ): IL-2 stimulated human NK cells; for Expression of IL2RA (IL2 receptor) / Expression of LAG3 / Transcription of IFNG (IFNγ) / Expression of 4-1BB (CD137 tnfrsf9): cortisol alone or cortisol plus relacorilant; for Expression of 4-1BB (CD137 tnfrsf9): stimulated human NK cells
Procedure: as §1

K562 tumor cells = test: K562 tumor cell killing by human NK cells in vitro; format: cell-based; settings: for Tumor cell killing by NK cells at 5:1 ratio: 5:1 effector:tumor cell ratio, Mann-Whitney p=0.004; for Tumor cell killing by NK cells: various NK:tumor cell ratios, cortisol alone or cortisol plus relacorilant
Procedure: Activation, proliferation, and cytokine secretion are all indicative of a functional change in NK cells mediated by cortisol and relacorilant. To determine if this functional change also affected target cell killing, NK cells were incubated with K562 tumor cells. At various NK:tumor cell ratios, cortisol suppressed tumor cell killing and relacorilant restored it (FIG. 13A). […] Thus, glucocorticoids suppress tumor cell killing by human NK cells in vitro.

[5] = tested on: tyrosine aminotransferase (TAT) in HepG2 cells; settings: cited from earlier work
[6] = IL-2 stimulated human NK cells, relacorilant relative to cortisol alone

| SMILES | NK cell activation (abundance of CD25+CD69+ cells) (human NK cells [1]) | Proliferation of NK cells (human NK cells [2]) | Cytokine secretion (both transcript and secreted protein) (human NK cells [3]; IL-2 stimulated human NK cells) | interferon γ (IFNγ) secretion (human NK cells [3]; [6]) | Secretion of other effector cytokines (human NK cells [3]; human NK cells) | Expression of IL2RA (IL2 receptor) (human NK cells [4]) | Expression of LAG3 (human NK cells [4]) | Transcription of IFNG (IFNγ) (human NK cells [4]) | Expression of chemokine ligand 3-like 1 (ccl3l1) (human NK cells [4]; stimulated NK cells) | Expression of 4-1BB (CD137 tnfrsf9) (human NK cells [4]) | Tumor cell killing by NK cells at 5:1 ratio (K562 tumor cells) | Tumor cell killing by NK cells (K562 tumor cells) | Activity of tyrosine aminotransferase (TAT) [5] | Granzyme A secretion (human NK cells [3]; [6]) | tumor necrosis factor (TNFα) secretion (human NK cells [3]; [6]) |
| --- | --- | --- | --- | --- | --- | --- | --- | --- | --- | --- | --- | --- | --- | --- | --- |
| C[C@]12CCC(=O)C=C1CC[C@@H]1[C@@H]2[C@@H](O)C[C@@]2(C)[C@H]1CC[C@]2(O)C(=O)CO [cortisol, reference compound] | suppressed | suppressed | suppressed | suppressed | suppressed | suppressed | suppressed | suppressed | suppressed | suppressed | significant decrease | suppressed |  |  |  |
| CC#C[C@]1(O)CC[C@H]2[C@@H]3CCC4=CC(=O)CCC4=C3[C@@H](c3ccc(N(C)C)cc3)C[C@@]21C [mifepristone] |  |  |  |  |  |  |  |  |  |  |  |  | decreases |  |  |
| Cn1cc(S(=O)(=O)N2CCC3=Cc4c(cnn4-c4ccc(F)cc4)C[C@]3(C(=O)c3cc(C(F)(F)F)ccn3)C2)cn1 [relacorilant, (R)-(1-(4-fluorophenyl)-6-((1-methyl-1H-pyrazol-4-yl)sulfonyl)-4,4a,5,6,7,8-hexahydro-1H-pyrazolo[3,4-g]isoquinolin-4a-yl)(4-(trifluoromethyl)pyridin-2-yl)methanone] | restore; also recorded: significantly improved | restore; also recorded: significantly improved | restored | improved |  | restored; also recorded: improved | restored; also recorded: promoted; also recorded: improved | improved |  | promoted | significant improvement; also recorded: counteracted | restore; also recorded: counteracted |  | improved | improved |
